Assay [1] deals with T1, human P2X7 receptor (Homo sapiens, UniProt Q99572).
T1 sequence (Q99572 1-595): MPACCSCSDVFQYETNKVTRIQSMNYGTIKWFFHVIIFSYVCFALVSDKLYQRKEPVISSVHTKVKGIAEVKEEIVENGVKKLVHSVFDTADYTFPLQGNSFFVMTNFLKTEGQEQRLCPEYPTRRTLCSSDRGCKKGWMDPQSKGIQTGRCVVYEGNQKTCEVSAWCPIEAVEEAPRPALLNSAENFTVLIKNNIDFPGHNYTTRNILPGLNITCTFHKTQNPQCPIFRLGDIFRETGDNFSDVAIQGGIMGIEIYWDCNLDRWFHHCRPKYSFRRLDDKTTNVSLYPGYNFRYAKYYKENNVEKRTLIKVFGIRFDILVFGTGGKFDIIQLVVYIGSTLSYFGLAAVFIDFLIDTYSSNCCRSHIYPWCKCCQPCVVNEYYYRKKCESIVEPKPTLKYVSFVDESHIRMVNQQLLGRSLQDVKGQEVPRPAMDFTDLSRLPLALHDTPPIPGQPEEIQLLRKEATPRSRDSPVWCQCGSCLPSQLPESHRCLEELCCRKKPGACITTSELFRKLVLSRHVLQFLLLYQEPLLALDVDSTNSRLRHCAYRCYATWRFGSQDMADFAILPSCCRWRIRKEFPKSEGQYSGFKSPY
The experiment in a line: Ethidium bromide uptake fluorescence assay. The class given is cell-based.

The target in assay [2] is T1, human P2X7 receptor. The experiment in a line: Radioligand competition binding assay using [^3H]A804598. On the technique in general: Loss of bound radioactivity is the signal in a displacement assay; it reports binding, not function.
Assay [3] addresses T1, human P2X7 receptor. As to conditions: carbon-11 labeled radioligand; ref Gao et al., 2015; Ory et al., 2016; cited from earlier work.
The test system of another assay is rodents P2X7 receptor. The conditions noted are these: carbon-11 labeled radioligand; ref Gao et al., 2015; Ory et al., 2016; cited from earlier work.
In assay [4] the target is T1, human P2X7 receptor. The experiment in a line: Radioligand competition binding assay using [^123I]TZ6019.
The target of assay [5] is T1, human P2X7 receptor. The experiment in a line: Radioligand saturation binding assay with [^123I]TZ6019.
In the next assay the target is T2, P2X7 receptor (Mus musculus, UniProt Q9Z1M0).
T2 sequence (Q9Z1M0 1-595): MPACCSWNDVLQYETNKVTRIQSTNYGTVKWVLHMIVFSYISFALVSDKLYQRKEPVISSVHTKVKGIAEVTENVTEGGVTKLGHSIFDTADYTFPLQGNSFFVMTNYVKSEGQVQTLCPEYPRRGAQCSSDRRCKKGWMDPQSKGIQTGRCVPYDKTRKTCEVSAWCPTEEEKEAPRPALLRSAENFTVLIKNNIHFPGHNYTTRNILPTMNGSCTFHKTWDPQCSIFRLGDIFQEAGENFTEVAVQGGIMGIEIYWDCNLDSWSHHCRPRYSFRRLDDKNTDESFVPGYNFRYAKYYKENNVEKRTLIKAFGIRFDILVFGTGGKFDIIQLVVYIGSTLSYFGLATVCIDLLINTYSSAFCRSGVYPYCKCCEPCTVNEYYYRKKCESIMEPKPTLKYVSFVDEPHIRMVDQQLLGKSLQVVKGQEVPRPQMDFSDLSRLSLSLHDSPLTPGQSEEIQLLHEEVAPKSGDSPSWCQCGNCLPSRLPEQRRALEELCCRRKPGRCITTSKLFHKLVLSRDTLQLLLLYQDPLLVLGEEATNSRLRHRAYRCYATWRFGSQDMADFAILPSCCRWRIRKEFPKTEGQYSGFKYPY
Put plainly: In vitro autoradiography of P301S and wild type mouse brain slices. The class given is binding. The conditions noted are these: for P2X7 receptor expression quantified by autoradiography: mean ± S.D., n = 3.

This is an account of results in PMC5767129 (European journal of pharmacology, 2017).

What is called IC50 is the concentration at which inhibition is half-maximal.

Take `CN1C(=O)CC[C@H]1C(=O)NCc1cccc(C(F)(F)F)c1Cl` [GSK1482160, reference compound]: the IC50 against human P2X7 receptor [1] amounted to 2.1 ± 0.3 nM; at human P2X7 receptor [2], 8.65 ± 1 nM; on human P2X7 receptor [4], 4.3 ± 0.9 nM. For the same compound, the “binding to human P2X7 receptor” value at human P2X7 receptor [3] is recorded as “tight binding”. For the same compound, the “binding to rodents P2X7 receptor” value with rodents P2X7 receptor was “weak binding”.

Take `O=C(NCc1cccc(C(F)(F)F)c1Cl)[C@@H]1CCC(=O)N1C/C=C/I` [TZ6019, (S,E)-N-(2-chloro-3-(trifluoromethyl)benzyl)-1-(3-iodoallyl)-5-oxopyrrolidine-2-carboxamide]: the “fold lower binding potency than GSK1482160” value on human P2X7 receptor [1] (ratio of ethidium bromide assay IC50 values) turned out to be 5 fold. In addition, the IC50 on human P2X7 receptor [2] was 12.9 ± 2 nM; on human P2X7 receptor [4], 9.49 ± 1.4 nM.

Regarding `O=C(NCc1cccc(C(F)(F)F)c1Cl)[C@@H]1CCC(=O)N1C/C=C/I` [[^123I]TZ6019], the Kd on human P2X7 receptor [5] (read-out: Kd (saturation binding), HEK-293-hP2X7R cells, one-site fit, n = 3) was 19.3 ± 2.8 nM.

Turning to `O=C(NCc1cccc(C(F)(F)F)c1Cl)[C@@H]1CCC(=O)N1C/C=C/[123I]` [[^123I]TZ6019], the “specific binding as fraction of total binding” value at human P2X7 receptor [5] (saturation binding, nonspecific defined with 100 µM GSK1482160) was “approximately 40%”. At P2X7 receptor (Cortex), the “fold higher autoradiography binding in P301S than wild type mice” value amounted to 2.4 fold. In addition, the “P2X7 receptor expression quantified by autoradiography” value at P2X7 receptor (Cortex, P301S mice) worked out at 330.53 ± 91.08 PSL/mm^2; on P2X7 receptor (Cortex, Wild type mice) it was 135.23 ± 32.55 PSL/mm^2; at P2X7 receptor (Hippocampus, P301S mice, 9-month-old) it was 255.05 ± 10.90 PSL/mm^2; on P2X7 receptor (Hippocampus, Wild type mice, 9-month-old), 154.18 ± 16.14 PSL/mm^2; on P2X7 receptor (Thalamus, P301S mice), 337.98 ± 93.45 PSL/mm^2; on P2X7 receptor (Thalamus, Wild type mice) it was 187.41 ± 61.02 PSL/mm^2. For the same compound, the “P2X7 receptor expression quantified by autoradiography” value at P2X7 receptor (Total brain, P301S mice) is 260.86 ± 48.93 PSL/mm^2; on P2X7 receptor (Total brain, Wild type mice) it was 193.05 ± 39.92 PSL/mm^2. Moreover, the “increase of binding in brain of P301S mice compared to wild type controls” value on P2X7 receptor (brain, n = 3, p = 0.04) is on record as 35%.
